This note sets out measurements from patent publication US20260258035A1, “FIVE-MEMBERED AND SIX-MEMBERED NITROGEN-CONTAINING COMPOUND, AND INTERMEDIATE, PREPARATION METHOD AND USE THEREOF” (HANGZHOU SYNRX THERAPEUTICS BIOMEDICAL TECHNOLOGY CO., LTD., priority 2022, published 2026).

Where two headings read alike, the source gives them in different places.

One test has as its system HCC1806. In words: Cell viability assay (CellTiter-Glo). The format is cell-based, Human. To be noted: HCC1806, 7 days, CellTiter-Glo, read-out: IC50 (nM) in cell viability assay.
The target in another test is PARG (Homo sapiens, UniProt Q86W56). Kind of test: Biochemical assay (PARG, TFMU-ADPr substrate). To be noted: PARG, TFMU-ADPr substrate.
Chain of PARG (Q86W56 whole entry): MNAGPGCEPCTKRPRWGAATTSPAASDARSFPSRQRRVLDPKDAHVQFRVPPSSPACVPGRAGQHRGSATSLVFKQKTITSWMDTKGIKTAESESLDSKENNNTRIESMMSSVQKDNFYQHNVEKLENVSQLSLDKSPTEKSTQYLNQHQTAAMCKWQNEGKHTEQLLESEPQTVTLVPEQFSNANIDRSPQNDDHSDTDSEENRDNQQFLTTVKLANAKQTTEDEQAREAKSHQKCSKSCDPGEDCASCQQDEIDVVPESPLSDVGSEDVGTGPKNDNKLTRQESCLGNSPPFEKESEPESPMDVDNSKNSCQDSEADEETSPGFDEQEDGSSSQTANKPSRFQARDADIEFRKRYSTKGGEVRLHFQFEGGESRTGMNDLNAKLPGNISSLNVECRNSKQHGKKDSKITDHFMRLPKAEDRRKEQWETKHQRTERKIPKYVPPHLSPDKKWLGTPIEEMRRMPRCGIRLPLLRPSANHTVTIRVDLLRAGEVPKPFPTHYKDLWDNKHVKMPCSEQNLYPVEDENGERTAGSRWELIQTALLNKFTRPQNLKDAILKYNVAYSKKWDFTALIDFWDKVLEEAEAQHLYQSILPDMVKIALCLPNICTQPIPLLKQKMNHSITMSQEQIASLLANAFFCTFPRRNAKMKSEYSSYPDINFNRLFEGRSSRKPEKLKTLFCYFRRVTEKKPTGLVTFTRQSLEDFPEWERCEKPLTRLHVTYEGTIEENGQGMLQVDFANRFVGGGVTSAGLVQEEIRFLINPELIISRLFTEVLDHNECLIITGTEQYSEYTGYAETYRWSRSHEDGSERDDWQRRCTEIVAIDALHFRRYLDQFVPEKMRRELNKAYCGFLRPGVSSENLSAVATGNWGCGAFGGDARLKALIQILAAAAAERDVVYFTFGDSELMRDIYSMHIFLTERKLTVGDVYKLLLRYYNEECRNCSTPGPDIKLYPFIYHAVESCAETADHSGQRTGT

In the case of `N#CC1(NS(=O)(=O)c2cc(N3CCC(c4nnco4)CC3)c3cnc(-c4nnc(C(F)(F)F)s4)n3c2)CC1` [Example 221, 8-(4-(1,3,4-oxadiazol-2-yl)piperidin-1-yl)-N-(1-cyanocyclopropyl)-3-(5-(trifluoromethyl)-1,3,4-thiadiazol-2-yl)imidazo[1,5-a]pyridine-6-sulfonamide], the IC50 in the test with HCC1806 (Homo sapiens, HCC1806, 168 h) is 150 nM; against PARG it was 43.7 nM.

With `C[C@H]1CN(c2cc(S(=O)(=O)NC3(C)COC3)cn3c(-c4nnc(C(F)F)s4)ncc23)C[C@H](C)O1` [Example 354, 3-(5-(difluoromethyl)-1,3,4-thiadiazol-2-yl)-8-((2S,6S)-2,6-dimethylmorpholino)-N-(3-methyloxetan-3-yl)imidazo[1,5-a]pyridine-6-sulfonamide], the IC50 with HCC1806 (Homo sapiens, HCC1806, 168 h) was determined as 65.8 nM; on PARG it was 0.27 nM.

Turning to `COC1(C(=O)N2CCN(c3cc(S(=O)(=O)NC4CC4)cn4c(-c5nnc(C(F)(F)F)s5)ncc34)CC2)CC1` [Example 194, N-cyclopropyl-8-(4-(1-methoxycyclopropane-1-carbonyl)piperazin-1-yl)-3-(5-(trifluoromethyl)-1,3,4-thiadiazol-2-yl)imidazo[1,5-a]pyridine-6-sulfonamide], the IC50 in the test with HCC1806 (Homo sapiens, HCC1806, 168 h) amounted to 84.8 nM; at PARG it was 3.21 nM.

`CC1(NS(=O)(=O)c2cc(N3CCO[C@H](CO)C3)c3cnc(-c4nnc(C(F)F)s4)n3c2)CC1` [Example 342, (S)-3-(5-(difluoromethyl)-1,3,4-thiadiazol-2-yl)-8-(2-(hydroxymethyl)morpholino)-N-(1-methylcyclopropyl)imidazo[1,5-a]pyridine-6-sulfonamide]: the half-maximal inhibitory concentration (IC50) turned out to be 297 nM in the test with HCC1806 (Homo sapiens, HCC1806, 168 h) and 3.04 nM against PARG.

For `CNC1(C(=O)N2CCN(c3cc(S(=O)(=O)NC4(C#N)CC4)cn4c(-c5nnc(C(F)(F)F)s5)ncc34)CC2)CC1` [Example 275, N-(1-cyanocyclopropyl)-8-(4-(1-(methylamino)cyclopropane-1-carbonyl)piperazin-1-yl)-3-(5-(trifluoromethyl)-1,3,4-thiadiazol-2-yl)imidazo[1,5-a]pyridine-6-sulfonamide], the IC50 in the test with HCC1806 (Homo sapiens, HCC1806, 168 h) came to 472 nM; on PARG it was 22.9 nM.

For `C[C@H]1CN(c2cc(S(=O)(=O)NC3(C)COC3)cn3c(-c4nnc(C(F)F)s4)nc(Cl)c23)C[C@H](CO)N1` [Example 402, 1-chloro-3-(5-(difluoromethyl)-1,3,4-thiadiazol-2-yl)-8-((3R,5S)-3-(hydroxymethyl)-5-methylpiperazin-1-yl)-N-(3-methyloxetan-3-yl)imidazo[1,5-a]pyridine-6-sulfonamide], the IC50 in the test with HCC1806 (Homo sapiens, HCC1806, 168 h) was found to be 1840 nM; on PARG it was 20.9 nM.

Regarding “N-(1-cyanocyclopropyl)-8-(4-(oxetane-3-carbonyl)piperazin-1-yl)-3-(5-(trifluoromethyl)-1,3,4-thiadiazol-2-yl)imidazo[1,5-a]pyridine-6-sulfonamide [Example 294]”, the IC50 in the test on HCC1806 stood at 110 nM; against PARG it was 12 nM.

`CC(C)OCC1CN(c2cc(S(=O)(=O)NC3(C)COC3)cn3c(-c4nnc(C(F)F)s4)ncc23)CCN1` (stereo not drawn) [Example 361, 3-(5-(difluoromethyl)-1,3,4-thiadiazol-2-yl)-8-(3-(isopropoxymethyl)piperazin-1-yl)-N-(3-methyloxetan-3-yl)imidazo[1,5-a]pyridine-6-sulfonamide]: the IC50 with HCC1806 (Homo sapiens, HCC1806, 168 h) was 642 nM; at PARG it was 18.2 nM.

Regarding `N#CC1(NS(=O)(=O)c2cc(N3CCN(C(=O)C4CC(N)C4)CC3)c3cnc(-c4nnc(C(F)(F)F)s4)n3c2)CC1` (stereo not drawn) [Example 273, 8-(4-(3-aminocyclobutane-1-carbonyl)piperazin-1-yl)-N-(1-cyanocyclopropyl)-3-(5-(trifluoromethyl)-1,3,4-thiadiazol-2-yl)imidazo[1,5-a]pyridine-6-sulfonamide], the IC50 in the test with HCC1806 (Homo sapiens, HCC1806, 168 h) was found to be 5940 nM; against PARG, 1.91 nM.
